In general, IC50 refers to the concentration needed to halve the response being measured.

The structures appear in SMILES notation.

Assay [1] concerns KYSE-780. Briefly: Anti-proliferative effect in human ESCC cell lines (MTT assay). The assay is classed as cell-based. The following applies: KYSE-780, MTT, 48-72 h incubation, read-out: IC50, cell viability. (Tetrazolium dyes change colour on reduction, which living cells bring about.)
The subject of assay [2] is KYSE-150. The description is as above. The following applies: KYSE-150, MTT, 48-72 h incubation, read-out: IC50, cell viability. The assay is classed as cell-based. As to the method: (§1) ESCC cell lines (KYSE-30, KYSE-150, KYSE-790, and KYSE-70) were plated in 96-well plates and incubated with desired concentrations of Compound A for 48-72 h. At the end of the incubation period, MTT (3-(4,5-dimethylthiazol-2-yl)-2,5-diphenyltetrazolium bromide) was added. The plate was placed on a shaker for 5 min to mix the formazan and the optical density at 560 nm was measured on a spectrophotometer. Data were plotted using Graphpad Prism for calculation of the IC50 concentrations.

Assay [3] concerns KYSE-70. The assay is described as above. It is filed as cell-based. The following applies: KYSE-70, MTT, 48-72 h incubation, read-out: IC50, cell viability. As for the experimental part: as §1
The test system of assay [4] is KYSE-30. The description is as above. The assay is classed as cell-based. The following applies: KYSE-30, MTT, 48-72 h incubation, read-out: IC50, cell viability. As for the experimental part:
as §1

Assay [5] deals with KYSE-150 mouse xenograft model. In words: Anti-tumor effect in esophageal cancer xenograft. It is filed as in vivo. Conditions: 20 mg/kg intra-peritoneal every 2 days for 2 weeks, KYSE-150 xenograft mice. As to the method: (§2) The anti-tumor effect of Compound (A) was determined in a KYSE-150 mouse xenograft model. Briefly, 10^6 cells were injected into the flank region. Mice were randomized according to body weight into two groups of five. A week after tumor cell injection, mice either received the vehicle or intra-peritoneal administration of Compound (A) at 20 mg/kg every 2 days for a 2 week period. At the end of the study period, animals were sacrificed and the tumors harvested.

In assay [6] the test system is NF-κB/p65 nuclear translocation in KYSE-150 cells. In words: NF-κB/p65 nuclear translocation upon serum stimulation in ESCC cells. It is filed as cell-based, human. Conditions: 10% FBS stimulation 1 h (about 84% without treatment). As to the method: (§3) Compound (A) was tested on blocking nuclear factor kappa B (NF-κB/p65) nuclear translocation upon serum stimulation in ESCC cells. KYSE-150 cells were starved in medium supplemented with 0.1% FBS for 24 h. […] Upon 10% FBS stimulation for 1 h, NF-κB/p65 appeared to translocate to nuclei evidenced by co-localization of nuclei in about 84% of KYSE-150 cells.

In assay [7] the test system is NF-κB/p65 in tumor tissues. Briefly: Immunofluorescence staining of xenograft tumor tissues (nuclear NF-κB/p65, cyclin D1). The assay is classed as in vivo, mouse. As for the experimental part:
as §2, §3

With `O=C(Cc1ccc2ncccc2c1)Nc1ccc(-n2nc(C3CC3)cc2C2CC2)cc1` [Compound (A), N-(4-(3,5-dicyclopropyl-1H-pyrazol-1-yl)phenyl)-2-(quinolin-6-yl)acetamide], the IC50 in assay [1] worked out at 5.5 µM; in assay [2], 1.4 µM; in assay [3], 1.4 µM; in assay [4], 1.2 µM. Further, the “tumor growth compared to vehicle treated control group” value in assay [5] is on record as “significantly reduced tumor growth”. The “number of cells with NF-κB/p65 nuclear localization” value in assay [6] (10 μM) is reported as 10.52%. In addition, in assay [7] (immunofluorescence of tumor tissues, 41% in control animals), the “nuclear NF-κB/p65 positive cells number in tumor tissues” value turned out to be 9%. Besides, the “expression of cyclin D1 in tumors compared with control group animals” value in assay [7] (tumors removed from treated animals) is listed as “dramatically reduced”.

Regarding `Cc1nnsc1C(=O)Nc1ccc(-n2nc(C(F)(F)F)cc2C(F)(F)F)cc1` [BTP-2, reference compound], in assay [6] (20 μM), the “number of cells with NF-κB/p65 nuclear localization” value is 8.53%.

These data come from patent US20200237743A1, “CRAC CHANNEL MODULATORS FOR TREATING ESOPHAGEAL CANCER” (Rhizen Pharmaceuticals SA, priority 2017, published 2020).
